Usually IC50 stands for the point on the concentration scale where inhibition reaches its midpoint. A high value points to a need for much substance.

The target in data set [1] is T1, dopamine uptake carrier (Rattus norvegicus, UniProt P23977).
T1 construct: purified synaptosomes of brain striatal tissue from Sprague-Dawley rats; from tissue; host or cells: Sprague-Dawley rat brain striatum, purified synaptosomes
The experiment in a line: Dopamine re-uptake in purified synaptosomes of rat brain striatal tissue. The class given is biochemical, Sprague-Dawley rats. As to conditions: substrate concentration 0.1 µM. On the procedure: Kinetic studies of dopamine re-uptake were carried out in purified synaptosomes of brain striatal tissue from Sprague-Dawley rats.

In data set [2] the target is T2, MAO-B (Mus musculus, UniProt Q8BW75).
T2 sequence (Q8BW75 1-520): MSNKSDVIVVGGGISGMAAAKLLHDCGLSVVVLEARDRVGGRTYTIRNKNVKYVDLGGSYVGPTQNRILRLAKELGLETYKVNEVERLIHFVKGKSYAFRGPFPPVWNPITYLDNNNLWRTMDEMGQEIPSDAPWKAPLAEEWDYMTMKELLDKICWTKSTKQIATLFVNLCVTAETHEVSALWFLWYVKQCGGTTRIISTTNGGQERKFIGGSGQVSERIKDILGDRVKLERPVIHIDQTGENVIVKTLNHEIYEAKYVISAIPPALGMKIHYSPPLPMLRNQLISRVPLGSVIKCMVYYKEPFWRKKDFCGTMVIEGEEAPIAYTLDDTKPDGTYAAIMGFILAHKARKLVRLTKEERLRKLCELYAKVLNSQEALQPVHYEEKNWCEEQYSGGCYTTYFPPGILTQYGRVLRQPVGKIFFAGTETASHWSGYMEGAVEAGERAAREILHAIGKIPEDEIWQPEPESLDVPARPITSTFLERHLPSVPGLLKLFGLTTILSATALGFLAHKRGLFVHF
The experiment in a line: Ex vivo inhibition of brain MAO-B after i.p. administration. On the procedure: The pharmacological assays were carried out on C57/BL mice. These animals are sensitive to the induction of the symptomatology of Parkinson's disease through the action of MPTP.
The animals were sacrificed by decapitation after 2 hours and the brains homogenised in potassium phosphate buffer 50 mM, pH 7.2. Determinations were made of the MAO-A and MAO-B activity in each case using radiometric methods.

The target in data set [3] is T3, MAO-A (Homo sapiens, UniProt P21397).
T3 construct: performed using homogenated human cerebral cortex obtained from autopsies; from tissue; host or cells: post-mortem human cerebral cortex homogenate
T3 sequence (P21397 1-527): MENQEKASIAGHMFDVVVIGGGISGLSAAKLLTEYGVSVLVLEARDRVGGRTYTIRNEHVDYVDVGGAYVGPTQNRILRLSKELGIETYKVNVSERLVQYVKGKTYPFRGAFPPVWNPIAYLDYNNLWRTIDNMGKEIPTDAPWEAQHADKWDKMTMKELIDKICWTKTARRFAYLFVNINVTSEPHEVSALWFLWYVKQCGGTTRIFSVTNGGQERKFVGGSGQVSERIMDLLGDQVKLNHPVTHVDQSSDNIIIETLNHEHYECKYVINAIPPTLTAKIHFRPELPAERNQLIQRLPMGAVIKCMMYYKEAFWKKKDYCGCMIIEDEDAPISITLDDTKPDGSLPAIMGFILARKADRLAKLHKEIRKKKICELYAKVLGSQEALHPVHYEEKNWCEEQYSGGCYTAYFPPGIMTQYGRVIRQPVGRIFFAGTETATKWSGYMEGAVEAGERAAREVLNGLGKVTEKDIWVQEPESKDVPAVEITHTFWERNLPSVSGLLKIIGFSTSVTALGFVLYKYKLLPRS
Description: MAO-A inhibition in homogenated human cerebral cortex. The class given is biochemical. The text has this: They were provided by Dr. Fco Javier González Oliván (Forensic Anatomic Institute of the Hospital Clínico Provincial in Barcelona).

The subject of data set [4] is ibotenic acid. Description: Protection against the neurotoxicity of ibotenic acid (brain acetylcholine). The format is in vivo, Sprague-Dawley rats. As to conditions: homogenised rat brain; 3 mg/Kg i.p. 2 h before intracerebroventricular ibotenic acid; ibotenic acid alone 3%; depending on the dose. As for the experimental part: One group of Sprague-Dawley rats was treated with compound FA-73 (3 mg/Kg, i.p.) followed two hours later by an stereotaxic injection of ibotenic acid into the cerebral ventricles at a dose that would induce an Alzheimer type of pathology. After sacrificing the animals, determinations were made of the acetylcholine (AC) in the homogenised brains.

In data set [5] the target is T4, MAO-B (Rattus norvegicus, UniProt P19643).
T4 construct: from tissue; host or cells: Sprague-Dawley rat liver, mitochondrial fraction
T4 sequence (P19643 1-520): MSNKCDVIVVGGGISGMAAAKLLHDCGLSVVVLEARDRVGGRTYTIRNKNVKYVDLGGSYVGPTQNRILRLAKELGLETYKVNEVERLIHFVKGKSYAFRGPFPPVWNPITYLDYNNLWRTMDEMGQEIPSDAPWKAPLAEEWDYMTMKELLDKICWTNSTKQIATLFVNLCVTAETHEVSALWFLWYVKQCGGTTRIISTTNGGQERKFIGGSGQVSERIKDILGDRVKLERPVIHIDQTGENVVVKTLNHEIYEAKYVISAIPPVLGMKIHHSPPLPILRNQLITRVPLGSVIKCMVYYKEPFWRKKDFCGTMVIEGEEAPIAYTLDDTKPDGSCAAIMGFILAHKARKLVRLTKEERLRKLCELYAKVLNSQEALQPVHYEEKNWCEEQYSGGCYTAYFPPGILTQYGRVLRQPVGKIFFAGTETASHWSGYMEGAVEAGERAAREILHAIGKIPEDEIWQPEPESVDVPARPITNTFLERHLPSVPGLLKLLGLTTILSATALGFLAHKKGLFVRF
Description: Kinetic parameters of suicide-type inhibition, MAO-B (selectivity K1 MAO-A / K1 MAO-B). The class given is biochemical, Sprague-Dawley rat. The note with it: selectivity for MAO-B. An excerpt: K1 is the affinity constant of the first stage of the reaction and K1 MAO-A / K1 MAO-B the expression of the selectivity.
K^1cat is the velocity constant for the formation of the covalent irreversible complex during the second stage of the process. To compare the values of these constants towards the two forms of MAO, we express the inhibition efficacy as the ratio K^1cat/K1. The value of these constants (see Tables 2 and 3), is the result of three different experiments, with their corresponding SEM.

Structures are written as SMILES.

T1 sequence (P23977 whole entry): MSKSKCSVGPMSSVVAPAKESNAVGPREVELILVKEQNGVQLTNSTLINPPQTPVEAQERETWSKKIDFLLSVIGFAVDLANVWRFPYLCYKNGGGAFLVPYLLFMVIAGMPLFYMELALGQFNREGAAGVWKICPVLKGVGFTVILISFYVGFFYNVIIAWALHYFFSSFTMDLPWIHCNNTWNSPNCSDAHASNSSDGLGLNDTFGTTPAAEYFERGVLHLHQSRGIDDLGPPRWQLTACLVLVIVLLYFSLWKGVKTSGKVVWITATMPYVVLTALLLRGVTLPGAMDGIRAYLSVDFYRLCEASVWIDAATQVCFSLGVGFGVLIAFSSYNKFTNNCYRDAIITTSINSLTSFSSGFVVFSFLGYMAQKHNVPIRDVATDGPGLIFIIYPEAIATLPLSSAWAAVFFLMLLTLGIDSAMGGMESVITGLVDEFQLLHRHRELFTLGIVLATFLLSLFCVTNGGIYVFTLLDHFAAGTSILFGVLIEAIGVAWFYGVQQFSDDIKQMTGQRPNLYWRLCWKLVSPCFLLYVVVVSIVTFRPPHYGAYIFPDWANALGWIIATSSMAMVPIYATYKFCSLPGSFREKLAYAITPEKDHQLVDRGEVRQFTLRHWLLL

For `C#CCNCc1cc2cc(OCc3ccccc3)ccc2[nH]1` [FA-73], the values for the IC50 in data set [1] and in data set [3] were 150 µM and 20 µM, respectively. Moreover, in data set [2] (concluded from brain MAO-B inhibition after 4 mg/Kg i.p. in C57/BL mice), the “crossing of the hematoencephalic barrier” value was “crosses the hematoencephalic barrier”. Besides, the “MAO-B ACTIVITY” value in data set [2] (mouse brain homogenate 2 hours after i.p., l-deprenyl 10 mg/Kg, tested compound 4 mg/Kg, control 303) is reported as 16. Moreover, the acetylcholine level entry in data set [4] was “up to 85 % of the control”. Also, in data set [5], the “K1 MAO-A/K1 MAO-B” value worked out at 1066.6.

These data come from patent EP0754455A1, “PHARMACEUTICAL COMPOSITIONS BASED ON AMINOMETHYLINDOLES AND THEIR THERAPEUTICAL APPLICATION AS NEUROPROTECTORS IN PARKINSON AND ALZHEIMER DISEASES” (CONSEJO SUPERIOR INVESTIGACIONES CIENTIFICAS (CSIC), priority 1995, dated 1996).
